Read-outs that look alike come from different tables or passages of the source. Where only a bound is given, the exact number is not on record here.

What all share (format): cell-based
In one assay the target is S1PR3 (Homo sapiens, UniProt Q99500). Nature of the assay: Agonistic activity test on S1P receptors, FLIPR. As to the method:
(§1) Instrument: FLIPR™ TETRA (Molecular Device)
(§2) Sample processing: Before the experiment, the working solution with the corresponding concentration was prepared by diluting with GPCR dilution buffer.
(§3) After 18-20 hours, the cell culture plat was taken out and added with dye working solution, and then the plate was placed in a 37° C./5% CO2 incubator for 1 hour, and finally equilibrated at room temperature for 15 minutes. Positive agonist working solution was added, and RFU values were detected and recorded. […] The positive agonist working fluid was added to the cell culture plate at the 21st second. […] The antagonistic mode detection program, the overall detection time of the instrument was 120 seconds, and positive antagonist working solution was added to the cell culture plate at the 21st second.
(§4) Data processing: Raw data were obtained via ScreenWorks (version 3.1) and saved as *FMD files on the Kingsray computer network system. Data were collected and analyzed using Excel and GraphPad Prism 6 software programs. For each well, the average fluorescence intensity value from 1 to 20 seconds was used as the baseline, and the maximum fluorescence intensity value from 21 to 120 seconds minus the minimum fluorescence intensity value from 21 to 120 seconds was the relative fluorescence intensity value (ARFU), from which the percentage activation or inhibition can be calculated based on the following equation.
(§5) % Activation Rate=(ΔRFUCompound-ΔRFUBackground)/(ΔRFUAgonist control-ΔRFUBackground)×100%
(§6) The data was analyzed using GraphPad Prism 6 with a four-parameter equation to calculate the EC50 and IC50 values. The four-parameter equation was as follows: y=Bottom+(Top-Bottom)/(1+10^((LogEC50/IC50-X)*HillSlope)), wherein X is the Log value of the concentration and Y was the inhibition rate.

The target in a further assay is S1P2 (Homo sapiens, UniProt O95136). Nature of the assay: Subtype selectivity study, method of Experimental Example 1. As to the method:
(§7) Experimental method: CHO-K1/Ga15/EDG1 cells stably expressing EDG1 receptor were cultured in a 10 cm culture dish in a 37° C./5% CO2incubator, and digested when the confluence rate reached 80%-85%. The cells in collected cell suspension were inoculated into 384 microtiter plates at appropriate density, and then placed in a 37° C./5% CO2 incubator and continue to incubate for at least 18 hours before using for experiments. After 18-20 hours, the cell culture plat was taken out and added with dye working solution, and then the plate was placed in a 37° C./5% CO2 incubator for 1 hour, and finally equilibrated at room temperature for 15 minutes. Positive agonist working solution was added, and RFU values were detected and recorded. The 384 microplates, cell plates and tip box with positive agonist working solution were placed into FLIPRTM TETRA and the agonist mode assay program was run with an overall assay time of 120 seconds. The positive agonist working fluid was added to the cell culture plate at the 21st second. 384 microplate, cell plate and gun head box containing the positive antagonist working fluid were put into the FLIPRTM TETRA. The antagonistic mode detection program, the overall detection time of the instrument was 120 seconds, and positive antagonist working solution was added to the cell culture plate at the 21st second. Data processing: Raw data were obtained via ScreenWorks (version 3.1) and saved as *FMD files on the […] computer network system. Data were collected and analyzed using Excel and GraphPad Prism 6 software programs. […] The four-parameter equation was as follows: y=Bottom+(Top-Bottom)/(1+10^((LogEC50/IC50-X)*HillSlope)), wherein X is the Log value of the concentration and Y was the inhibition rate. The S1P receptor selectivity was tested for different subtypes using the method described in Experimental Example 1.

The next assay has as its target T1, S1P4 (Homo sapiens, UniProt O95977).
T1 sequence (O95977 1-384): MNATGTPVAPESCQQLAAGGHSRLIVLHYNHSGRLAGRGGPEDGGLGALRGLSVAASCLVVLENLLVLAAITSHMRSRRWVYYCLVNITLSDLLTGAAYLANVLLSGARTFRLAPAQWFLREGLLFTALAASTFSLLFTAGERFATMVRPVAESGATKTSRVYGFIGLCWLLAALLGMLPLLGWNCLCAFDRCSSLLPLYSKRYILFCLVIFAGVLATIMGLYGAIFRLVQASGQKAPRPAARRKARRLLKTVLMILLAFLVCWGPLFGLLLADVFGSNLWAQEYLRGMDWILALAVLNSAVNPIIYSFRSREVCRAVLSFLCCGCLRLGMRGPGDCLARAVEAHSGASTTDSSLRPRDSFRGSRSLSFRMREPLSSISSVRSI
The description is as above. Here is the method: as §7

The target of the next assay is S1P5 (Homo sapiens, UniProt Q9H228). Described as above. Here is the method:
as §7

In a further assay the target is T2, S1PR1 (Homo sapiens, UniProt P21453).
T2 construct: host or cells: CHO-K1 co-expressing Ga15
T2 sequence (P21453 whole entry): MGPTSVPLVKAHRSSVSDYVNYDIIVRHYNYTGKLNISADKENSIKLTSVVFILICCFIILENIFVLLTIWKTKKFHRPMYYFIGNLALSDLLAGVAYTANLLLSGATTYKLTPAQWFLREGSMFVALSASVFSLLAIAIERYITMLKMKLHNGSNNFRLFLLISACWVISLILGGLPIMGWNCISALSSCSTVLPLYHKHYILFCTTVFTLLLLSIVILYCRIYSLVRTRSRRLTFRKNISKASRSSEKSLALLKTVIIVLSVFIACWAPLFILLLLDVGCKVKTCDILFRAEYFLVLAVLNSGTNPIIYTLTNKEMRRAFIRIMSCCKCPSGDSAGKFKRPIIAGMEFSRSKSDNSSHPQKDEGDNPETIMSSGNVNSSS
Nature of the assay: Agonistic activity test on S1P receptors, FLIPR, CHO-K1/Ga15/EDG1 cells. Here is the method: as §1
Experimental materials: CHO-K1/Ga15/EDG1 cells constructed by GenScript autonomously.
as §2, §3, §4, §5, §6

[1] abbreviates: FLIPR agonist mode, read-out: S1PR3 EC50.
The mark [2] stands for this setting: subtype selectivity study, read-out: S1P3 EC50.
Setting [3] is: CHO-K1/Ga15/EDG1 cells, FLIPR agonist mode, read-out: S1PR1 EC50.

Sequence of S1PR3 (Q99500 whole entry, species assumed): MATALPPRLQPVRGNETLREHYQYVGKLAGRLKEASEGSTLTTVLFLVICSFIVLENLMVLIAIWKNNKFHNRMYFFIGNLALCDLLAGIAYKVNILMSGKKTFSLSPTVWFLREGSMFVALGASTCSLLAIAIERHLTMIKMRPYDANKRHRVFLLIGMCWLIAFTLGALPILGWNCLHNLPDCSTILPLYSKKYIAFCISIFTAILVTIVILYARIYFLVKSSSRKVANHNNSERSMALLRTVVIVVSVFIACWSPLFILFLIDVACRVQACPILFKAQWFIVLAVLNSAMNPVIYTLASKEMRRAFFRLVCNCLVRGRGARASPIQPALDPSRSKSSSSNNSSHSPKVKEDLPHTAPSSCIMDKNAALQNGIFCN
Sequence of S1P5 (Q9H228 whole entry, species assumed): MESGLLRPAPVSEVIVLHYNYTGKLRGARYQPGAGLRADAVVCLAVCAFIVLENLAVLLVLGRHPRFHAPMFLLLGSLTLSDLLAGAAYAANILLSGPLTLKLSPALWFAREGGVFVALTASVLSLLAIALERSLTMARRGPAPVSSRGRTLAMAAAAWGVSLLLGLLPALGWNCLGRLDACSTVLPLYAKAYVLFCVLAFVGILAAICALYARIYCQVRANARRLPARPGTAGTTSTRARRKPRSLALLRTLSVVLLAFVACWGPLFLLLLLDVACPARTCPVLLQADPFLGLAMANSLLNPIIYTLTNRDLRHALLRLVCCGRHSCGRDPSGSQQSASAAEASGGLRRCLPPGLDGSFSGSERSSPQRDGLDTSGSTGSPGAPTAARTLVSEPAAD
Sequence of S1P2 (O95136 whole entry, species assumed): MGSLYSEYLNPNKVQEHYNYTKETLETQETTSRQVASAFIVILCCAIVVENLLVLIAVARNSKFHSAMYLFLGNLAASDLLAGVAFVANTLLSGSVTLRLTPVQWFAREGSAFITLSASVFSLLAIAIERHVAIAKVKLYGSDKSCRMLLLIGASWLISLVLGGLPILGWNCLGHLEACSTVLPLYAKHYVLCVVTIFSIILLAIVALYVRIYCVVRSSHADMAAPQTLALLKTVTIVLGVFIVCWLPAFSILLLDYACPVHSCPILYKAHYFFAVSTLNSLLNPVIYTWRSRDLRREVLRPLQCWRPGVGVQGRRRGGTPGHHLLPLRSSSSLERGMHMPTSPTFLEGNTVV

Take `CC(C)Oc1ccc(-c2nc(-c3cccc4c3CC[C@@H]4NCCO)no2)cc1C#N` [Ozanimod]: the EC50 on S1PR3 (setting [1]) is > 10 µM; at S1PR3 (setting [2]), 2.62 µM; on S1P2 it was > 10 µM; at S1P4, > 10 µM; on S1P5, 0.0107 µM.

Regarding `Cn1c(-c2nc(-c3ccc(CN4CC(C(=O)O)C4)c4ccccc34)no2)cc2ccccc21` [Compound A37, 1-((4-(5-(1-methyl-1H-indole-2-yl)-1,2,4-oxadiazol-3-yl)naphthalen-1-yl)methyl) azetidine-3-carboxylic acid hydrochloric acid], the EC50 on S1PR1 (CHO-K1/Ga15/EDG1 cells, FLIPR agonist mode, cells printed in μM, read-out: S1PR1 EC50) was > 10 µM; on S1PR3 (setting [1]), > 10 µM.

`O=C(O)C1CN(Cc2ccc(-c3noc(-c4ccc5c(c4)OCCO5)n3)c3ccccc23)C1` [Compound A32, 1-((4-(5-(2,3-dihydrobenzo[b][1,4]dioxin-6-yl)-1,2,4-oxadiazol-3-yl)naphthalen-1-yl)methyl) azetidine-3-carboxylic acid hydrochloric acid]: the values for the EC50 at S1PR1 (setting [3]) and on S1PR3 (setting [1]) were 0.617 µM and > 10 µM, respectively.

Turning to `O=C(O)C1CN(Cc2ccc(-c3noc(C4CCCCC4)n3)c3ccccc23)C1` [Compound A39, 1-((4-(5-cyclohexyl-1,2,4-oxadiazol-3-yl)naphthalen-1-yl)methyl) azetidine-3-carboxylic acid hydrochloric acid], the 50% effective concentration (EC50) at S1PR1 (setting [3]) was 0.831 µM; at S1PR3 (setting [1]), > 10 µM.

`O=C(O)C1CN(Cc2ccc(-c3noc(-c4cccnc4)n3)c3ccccc23)C1` [Compound A28, 1-((4-(5-(pyridin-3-yl)-1,2,4-oxadiazol-3-yl)naphthalen-1-yl)methyl) azetidine-3-carboxylic acid hydrochloric acid]: the EC50 at S1PR1 (setting [3]) was 1.18 µM; on S1PR3 (setting [1]), > 10 µM.

Consider `CCc1cc(/C(C)=N/OCc2ccc(C3CCCCC3)c(C(F)(F)F)c2)ccc1CN1CC(C(=O)O)C1` [Siponmod, reference compound], for which the EC50 on S1PR1 (setting [3]) is 0.547 µM; on S1PR1 (subtype selectivity study, read-out: S1P1 EC50), 0.547 µM; at S1PR3 (setting [1]), > 10 µM; at S1PR3 (setting [2]), > 1 µM; at S1P2, > 10 µM; on S1P4 it was 0.75 µM. At S1P5, this molecule gave an EC50 of 0.00098 µM.

Regarding `O=C(O)C1CN(Cc2ccc(-c3noc(-c4cnc5ccccc5c4)n3)c3ccccc23)C1` [Compound A33, 1-((4-(5-(quinolin-3-yl)-1,2,4-oxadiazol-3-yl)naphthalen-1-yl)methyl) azetidine-3-carboxylic acid hydrochloric acid], the EC50 on S1PR1 (setting [3]) was 0.933 µM; at S1PR3 (setting [1]) it was > 10 µM.

As a reminder, the EC50 is the concentration that produces a half-maximal response.
